How the values were obtained:
PDE 10a = target: T1, PDE 10a (Homo sapiens, UniProt Q9Y233); assay: In vitro enzyme inhibition assay (PDE 10a, scintillation proximity, [3H]cAMP substrate); type: biochemical; conditions: full-length recombinant PDE 10a, crude Sf9 cell lysate; 60 minutes, room temperature
T1 construct: Full-length recombinant PDE 10a was expressed in Sf9 insect cells; made in house; host or cells: Sf9 insect cells (baculovirus, Bac-to-Bac)
Protocol: In vitro Enzyme Inhibition Assay:
Full-length recombinant PDE 10a was expressed in Sf9 insect cells (Invitrogen, Carlsbad, Calif., U.S.A.) using the Bac-to-Bac™ Baculovirus Expression System (Life Technologies, Gaithersburg, Md., U.S.A.). 48 hours post infection, cells were harvested and resuspended in 20 mL (per 1L culture) Lysis Buffer (50 mM Tris-HCl, pH 7.4, 50 mM NaCl, 1 mM MgCl2, 1.5 mM EDTA, 10% glycerol plus 20 μL Protease Inhibitor Cocktail Set III [CalBiochem, La Jolla, Calif., U.S.A.]). Cells were sonicated at 4° C. for 1 minute and centrifuged at 10,000 RPM for 30 minutes at 4° C. Supernatant was removed and stored at −20° C. for activity assays.
The test compounds were serially diluted in DMSO using two-fold dilutions to stock concentrations ranging typically from 200 μM to 1.6 μM (final concentrations in the assay range from 4 μM to 0.032 μM). 96-well assay isoplates (Wallac Inc., Atlanta, Ga., U.S.A.) were loaded with 2 μL of the serially diluted individual test compounds followed by 50 μL of a dilution of crude recombinant PDE 10a-containing sf9 cell lysate. The dilution of the lysate was selected such that less than 70% of the substrate is converted during the later incubation (typical dilution: 1:10000; dilution buffer: 50 mM Tris/HCl pH 7.5, 8.3 mM MgCl2, 1.7 mM EDTA, 0.2% BSA). The substrate, [5′,8-^3H] adenosine 3′,5′-cyclic phosphate (1 μCi/μL; Amersham Pharmacia Biotech., Piscataway, N.J., U.S.A.), was diluted 1:2000 in assay buffer (assay buffer: 50 mM Tris/HCl pH 7.5, 8.3 mM MgCl2, 1.7 mM EDTA) to give a final working concentration of 0.0005 μCi/μL. The enzymatic assay was initiated by addition of 50 μL (0.025 μCi) of diluted substrate. Reactions were incubated at room temperature for 60 minutes and terminated by addition of 25 μL of 18 mg/mL Yttrium Scintillation Proximity Beads (Amersham Pharmacia Biotech., Piscataway, N.J., U.S.A.). Plates were sealed and incubated at room temperature for 60 minutes. Plates were read for 30 seconds/well using a Microbeta counter (Wallac Inc., Atlanta, Ga., U.S.A.). The IC50 values were determined by plotting compound concentration versus percent inhibition.

[1] = tested on: MDA-MB-231 human breast carcinoma cells; assay: In vitro proliferation inhibition assay (LDH activity, 72 hours); type: cell-based; conditions: MDA-MB-231 cells; for inhibition at 2 µM: read-out: % inhibition at a concentration of 2 μM; for inhibition at 10 µM: read-out: % inhibition at a concentration of 10 μM
Protocol: In vitro Proliferation Inhibition Assay:
MDA-MB-231 human breast carcinoma cells (ATCC #HTB26) were cultured in standard growth medium (DMEM), supplemented with 10% heat-inactivated FBS, 10 mM HEPES, 2 mM glutamine, 100 U/mL penicillin, and 100 μg/mL streptomycin) at 37° C. in 5% CO2 (vol/vol) in a humidified incubator. Cells were plated at a density of 3000 cells per well in 100 μL growth medium in a 96 well culture dish. 24 hours after plating, lactate dehydrogenase (LDH) activity was determined using the Cytotox 96 Non-radioactive Cytotoxicity Kit (Promega, Madison Wis., U.S.A.) to yield T0h LDH values. Briefly, cells were lysed with the addition of 200 μL of Lysis Buffer (included in the Promega Kit) and lysates were further diluted 1:50 in Lysis Buffer. 50 μL of diluted cell lysate were transferred to a fresh 96 well culture plate. The assay was initiated with the addition of 50 μL of substrate per well. Color development was allowed to proceed for 10-15 minutes. The assay was terminated with the addition of 50 μL of Stop Solution (included in the Promega Kit). Optical densities were determined spectrophotometrically at 490 nm in a 96 well plate reader (SpectraMax 250, Molecular Devices, Sunnyvale, Calif., U.S.A.).
Test compounds were dissolved in 100% DMSO to prepare 10 mM stocks. Stocks were further diluted 1:250 in growth medium to yield working stocks of 40 μM test compound in 0.4% DMSO. Test compounds were serially diluted in growth medium containing 0.4% DMSO to maintain constant DMSO concentrations for all wells. 50 μL of fresh growth medium and 50 μL of diluted test compound were added to each culture well to give a final volume of 200 μL. The cells with and without individual test compounds were incubated for 72 hours at which time LDH activity was measured to yield T72h values. Optionally, the IC50 values can be determined with a least squares analysis program using compound concentration versus percent inhibition.
% Inhibition=[1−(T72h test−T0h)/(T72h ctrl−T0h)]×100
T72h test=LDH activity at 72 hours in the presence of test compound
T72h ctrl=LDH activity at 72 hours in the absence of test compound
T0h=LDH activity at Time Zero

T1 sequence (Q9Y233 1-779 isoform Q9Y233-1): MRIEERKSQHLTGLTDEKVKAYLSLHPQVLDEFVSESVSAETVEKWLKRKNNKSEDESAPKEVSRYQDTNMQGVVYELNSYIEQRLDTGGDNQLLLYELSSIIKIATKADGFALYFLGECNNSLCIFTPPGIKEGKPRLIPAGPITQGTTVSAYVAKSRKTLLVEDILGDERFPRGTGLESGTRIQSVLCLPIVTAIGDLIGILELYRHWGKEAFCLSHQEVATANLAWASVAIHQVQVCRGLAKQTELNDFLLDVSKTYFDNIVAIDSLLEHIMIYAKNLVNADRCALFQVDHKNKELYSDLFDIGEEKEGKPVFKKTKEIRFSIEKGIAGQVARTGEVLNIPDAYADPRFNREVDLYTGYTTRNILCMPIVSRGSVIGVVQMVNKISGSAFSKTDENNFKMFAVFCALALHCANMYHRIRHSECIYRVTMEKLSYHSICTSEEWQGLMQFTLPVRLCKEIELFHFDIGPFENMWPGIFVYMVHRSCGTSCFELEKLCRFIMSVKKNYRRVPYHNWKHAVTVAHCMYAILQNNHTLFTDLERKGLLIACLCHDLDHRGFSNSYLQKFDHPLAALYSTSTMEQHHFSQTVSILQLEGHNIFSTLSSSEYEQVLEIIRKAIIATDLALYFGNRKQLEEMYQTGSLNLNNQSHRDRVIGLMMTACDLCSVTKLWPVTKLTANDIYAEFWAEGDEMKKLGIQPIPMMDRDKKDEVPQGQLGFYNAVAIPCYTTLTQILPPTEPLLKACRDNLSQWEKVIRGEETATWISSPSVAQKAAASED

Structure (SMILES) | IC50 (PDE 10a) [nM] | inhibition at 2 µM [1] [%] | inhibition at 10 µM [1] [%]
CCOC(=O)c1c(-c2c[nH]c3c(OC)cccc23)c(C)n2c1-c1cc(OC)c(OC)cc1CC2 [Example 46, Ethyl-2-(1H-7-methoxy-indol-3-yl)-8,9-dimethoxy-3-methyl-5,6-dihydropyrrolo[2,1-a]isoquinoline-1-carboxylate] | 220 | 90 | –
CCOC(=O)c1c(-c2cccc3c2ccn3CC)c(C)n2c1-c1cc(OC)c(OC)cc1CC2 [Example 57, Ethyl 2-(1-ethyl-1H-indol-4-yl)-8,9-dimethoxy-3-methyl-5,6-dihydropyrrolo[2,1-a]-isoquinoline-1-carboxylate] | 1500 | 89 | –
CCOC(=O)c1c(-c2cccc3cc[nH]c23)c(C)n2c1-c1cc(OC)c(OC)cc1CC2 [Example 49] | 110 | 91 | –
CCOC(=O)c1c(-c2ccc3c(c2)CCN3S(C)(=O)=O)c(C)n2c1-c1cc(OC)c(OC)cc1CC2 [Example 88] | – | 40 | –
CCOC(=O)c1c(-c2c[nH]c3ccc(OC)cc23)c(C)n2c1-c1cc(OC)c(OC)cc1CC2 [Example 12] | 365 | 73 | –
CCOC(=O)c1c(-c2c[nH]c3ccc(Cl)cc23)c(C)n2c1-c1cc(OC)c(OC)cc1CC2 [Example 50] | 330 | 77 | –
CCOC(=O)c1c(-c2cccc3c(C(=O)C4CC4)c[nH]c23)c(C)n2c1-c1cc(OC)c(OC)cc1CC2 [Example 68, Ethyl 2-[3-(cyclopropylcarbonyl)-1H-indol-7-yl]-8,9-dimethoxy-3-methyl-5,6-dihydropyrrolo[2,1-a]isoquinoline-1-carboxylate] | – | 43 | –
CCOC(=O)c1c(-c2c[nH]c3cc(F)ccc23)c(C)n2c1-c1cc(OC)c(OC)cc1CC2 [Example 52] | 220 | 81 | –
CCOC(=O)c1c(C(C)C)c(C)n2c1-c1cc(OC)c(OC)cc1CC2 [Example 5] | 370 | – | 87
CCOC(=O)c1c(-c2ccc3[nH]cc(C(C)=O)c3c2)c(C)n2c1-c1cc(OC)c(OC)cc1CC2 [Example 72] | – | 81 | –

Continued, in another order:

IC50 (PDE 10a) [nM] | Structure (SMILES) | inhibition at 2 µM [1] [%] | inhibition at 10 µM [1] [%]
200 | CCOC(=O)c1c(-c2cccc3c2ccn3CCC#N)c(C)n2c1-c1cc(OC)c(OC)cc1CC2 [Example 61] | 90 | –
140 | CCOC(=O)c1c(-c2cccc3ncc(C)cc23)c(C)n2c1-c1cc(OC)c(OC)cc1CC2 [Example 7] | – | 85
71 | CCOC(=O)c1c(-c2cn(C)c3ccccc23)c(C)n2c1-c1cc(OC)c(OC)cc1CC2 [Example 23] | 90 | –
68 | CCOC(=O)c1c(-c2cn(Cc3ccccc3)c3ccccc23)c(C)n2c1-c1cc(OC)c(OC)cc1CC2 [Example 56] | 64 | –
170 | CCOC(=O)c1c(-c2cccc3c(C(=O)c4ccccc4)c[nH]c23)c(C)n2c1-c1cc(OC)c(OC)cc1CC2 [Example 71] | 72 | –
150 | CCOC(=O)c1c(-c2ccc3ncoc3c2)c(C)n2c1-c1cc(OC)c(OC)cc1CC2 [Example 76, Ethyl 2-(1,3-benzoxazol-6-yl)-8,9-dimethoxy-3-methyl-5,6-dihydropyrrolo[2,1-a]isoquinoline-1-carboxylate] | 63 | –
94 | CCOC(=O)c1c(-c2cn(C(C)=O)c3ccccc23)c(C)n2c1-c1cc(OC)c(OC)cc1CC2 [Example 8] | – | 84
< 30 | CCOC(=O)c1c(-c2ccc3c(c2)CCN3S(=O)(=O)c2ccccc2)c(C)n2c1-c1cc(OC)c(OC)cc1CC2 [Example 87] | 95 | –
100 | CCCNC(=O)N1CCc2cc(-c3c(C(=O)OCC)c4n(c3C)CCc3cc(OC)c(OC)cc3-4)ccc21 [Example 81] | 89 | –

Source: US20030236276A1, “Pyrrolo[2.1-a]isoquinoline derivatives” (priority 2001, published 2003)
